Tests used:
HLA A*3001 = HLA A*3001 (Homo sapiens, UniProt P04439, D140H/D185E/E176W/F33S/G80R/H175R/K168Q/R138E/R41S); test: biochemical; assay type: binding
HLA A*3201 = HLA A*3201 (Homo sapiens, UniProt P04439, A270S/D101S/D185E/E176V/E277Q/F133L/G103R/G107R/G231S/H175R/I121M/I218V/I322F/K168Q/L105A/L300P/L318F/M331R/P208A/P217A/Q94H/R106L/R138Q/S129P/T104I/T323A/T345S/V100E/V321M/V358M); test: biochemical; assay type: binding
HLA A*6802 = HLA A*6802 (Homo sapiens, UniProt P04439, A269V/D140Y/D185E/E176V/E277Q/E87N/F33Y/G231S/I121R/I166T/I218V/L180W/L300P/L318F/N151K/P208A/P217A/Q86R/R138H/R169H/S129P/T345S/V36M); assay type: binding
HLA B*0702 = HLA B*0702 (Homo sapiens, UniProt P01889); assay type: binding; settings: positional scanning combinatorial 9-mer library; normalized to 1.0 for the best residue at each position
HLA B*0801 = HLA B*0801 (Homo sapiens, UniProt P01889, A93T/A95T/D138N/E176V/E187T/K202T/Q94N/R180D/S35A/V36M/Y33D/Y91F); test: biochemical; assay type: binding
HLA B*1501 = HLA B*1501 (Homo sapiens, UniProt P01889, A329T/A93T/A95T/C349S/D201E/D98Y/E187L/E204Q/E69M/E70A/K202T/N87E/Q94N/R155S/R180W/S121R/S35A/S48A/V306I/V36M/Y140S/Y91S); test: biochemical; assay type: binding
HLA B*1503 = HLA B*1503 (Homo sapiens, UniProt P01889, A329T/A93T/A95T/C349S/D201E/D98Y/E187L/E204Q/K202T/N87E/Q94N/R155S/R180L/S121R/S35A/V306I/V36M/Y140S/Y91S); test: biochemical; assay type: binding
HLA B*2705 = HLA B*2705 (Homo sapiens, UniProt P01889, D138H/D201E/E176V/E204Q/G107R/H137Y/K202T/N104T/N87E/Q56L/Q94K/R106L/R155S/R180L/S101D/S121N/S48T/Y140D/Y33H/Y91C); assay type: binding; settings: positional scanning combinatorial 9-mer library; normalized to 1.0 for the best residue at each position
HLA B*3501 = HLA B*3501 (Homo sapiens, UniProt P01889, A329T/A93T/A95T/C349S/D201E/D98Y/E176V/E187L/E204Q/E69T/I218V/K202T/L119I/Q94N/R155S/R180L/S121R/S35A/S48A/T118I/V127L/V306I/V36M/Y140S/Y91F); assay type: binding
HLA B*5101 = HLA B*5101 (Homo sapiens, UniProt P01889, A329T/A93T/A95T/C349S/D138N/D201E/D98Y/E187L/E204Q/E69T/G107R/I218V/K202T/L105A/L119W/N104I/Q94N/R106L/R155S/R180L/S101N/S121T/S35A/S48A/V306I/V36M/Y195H/Y91F); assay type: binding
HLA B*5301 = HLA B*5301 (Homo sapiens, UniProt P01889, A329T/A93T/A95T/C349S/D201E/D98Y/E176V/E187L/E204Q/E69T/G107R/I218V/K202T/L105A/L119I/N104I/Q94N/R106L/R155S/R180L/S101N/S121R/S35A/S48A/T118I/V127L/V306I/V36M/Y140S/Y91F); assay type: binding
HLA B*5401 = HLA B*5401 (Homo sapiens, UniProt P01889, A329T/C349S/D138N/D201E/E176V/E187T/E204Q/E69G/I76V/K202T/L119W/R155S/R180L/S121T/S35A/S48A/V127L/V306I/V36M/Y140L); assay type: binding
HLA B*5801 = HLA B*5801 (Homo sapiens, UniProt P01889, A329T/C349S/D201E/D98Y/E176V/E187L/E204Q/E69T/G107R/I218V/I90N/K202T/L105A/L119I/N104I/N87E/Q89R/Q94S/R106L/R155S/R180L/R86G/S101N/S121R/S35A/S48A/T118I/V127L/V306I/V36M/Y140S/Y91M); assay type: binding
HLA B*5802 = HLA B*5802 (Homo sapiens, UniProt P01889, A329T/C349S/D201E/D98Y/E176V/E187L/E204Q/E69T/G107R/I218V/I90N/K202T/L105A/N104I/N87E/Q89R/Q94S/R106L/R155S/R180L/R86G/S101N/S121W/S35A/S48A/V127L/V306I/V36M/Y140S/Y91M); assay type: binding
H-2 D^b = H-2 D^b (Mus musculus, UniProt P01899); assay type: binding
H-2 D^b, sequence (P01887 21-119): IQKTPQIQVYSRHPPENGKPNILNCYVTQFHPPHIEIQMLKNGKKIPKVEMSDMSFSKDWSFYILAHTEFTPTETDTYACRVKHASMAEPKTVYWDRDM
H-2 D^b, sequence (P01899 25-362): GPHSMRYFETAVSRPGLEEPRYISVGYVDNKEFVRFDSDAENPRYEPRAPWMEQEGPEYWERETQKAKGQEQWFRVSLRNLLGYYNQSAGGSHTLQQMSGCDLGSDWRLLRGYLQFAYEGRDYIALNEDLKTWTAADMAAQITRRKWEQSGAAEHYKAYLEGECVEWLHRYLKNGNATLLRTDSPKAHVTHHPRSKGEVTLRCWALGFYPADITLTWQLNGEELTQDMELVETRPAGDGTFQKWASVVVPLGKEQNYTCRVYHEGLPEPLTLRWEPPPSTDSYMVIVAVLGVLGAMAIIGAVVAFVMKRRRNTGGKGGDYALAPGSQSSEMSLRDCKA

H-2 D^d = H-2 D^d (Mus musculus, UniProt P01900); assay type: binding
H-2 D^d, sequence (P01900 whole entry, looked up): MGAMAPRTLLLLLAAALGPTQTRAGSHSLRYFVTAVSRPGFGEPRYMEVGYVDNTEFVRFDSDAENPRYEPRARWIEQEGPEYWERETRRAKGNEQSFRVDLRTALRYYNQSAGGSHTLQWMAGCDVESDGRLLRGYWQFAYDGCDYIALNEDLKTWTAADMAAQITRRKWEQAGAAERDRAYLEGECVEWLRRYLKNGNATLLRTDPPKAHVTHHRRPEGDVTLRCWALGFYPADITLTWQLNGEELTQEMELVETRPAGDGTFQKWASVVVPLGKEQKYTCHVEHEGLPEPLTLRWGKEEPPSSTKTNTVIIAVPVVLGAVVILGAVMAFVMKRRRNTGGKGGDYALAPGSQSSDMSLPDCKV

H-2 K^k = H-2 K^k (Mus musculus, UniProt P04223); assay type: binding
H-2 K^k, sequence (P01887 21-119): as the sequence (P01887 21-119) above
H-2 K^k, sequence (P04223 22-369): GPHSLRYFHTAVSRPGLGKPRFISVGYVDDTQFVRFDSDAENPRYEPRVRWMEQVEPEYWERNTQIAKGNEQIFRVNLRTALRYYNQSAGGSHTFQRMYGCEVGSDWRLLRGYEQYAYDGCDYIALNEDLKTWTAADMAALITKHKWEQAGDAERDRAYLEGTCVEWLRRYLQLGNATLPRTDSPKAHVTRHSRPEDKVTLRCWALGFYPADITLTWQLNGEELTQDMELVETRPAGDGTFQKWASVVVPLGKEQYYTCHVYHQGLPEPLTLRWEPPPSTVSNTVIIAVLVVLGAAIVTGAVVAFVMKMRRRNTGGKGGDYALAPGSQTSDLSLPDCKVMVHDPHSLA

HLA A*0201 = HLA A*0201 (Homo sapiens, UniProt P04439, D140Y/D185E/D98H/E176V/E277Q/G131W/G231S/I119V/I121R/I166T/I218V/L300P/L318F/N151K/N90K/P208A/P217A/Q86G/Q94H/R138H/R169H/T345S); settings: positional scanning combinatorial 9-mer library; normalized to 1.0 for the best residue at each position

| Sequence | Normalized average relative binding affinity (ARB), HLA A*3001 (HLA A*3001) | Normalized average relative binding affinity (ARB), HLA A*3201 (HLA A*3201) | Normalized average relative binding affinity (ARB), HLA A*6802 (HLA A*6802) | Normalized average relative binding affinity (ARB), HLA B*0702 (HLA B*0702) | Normalized average relative binding affinity (ARB), HLA B*0801 (HLA B*0801) | Normalized average relative binding affinity (ARB), HLA B*1501 (HLA B*1501) | Normalized average relative binding affinity (ARB), HLA B*1503 (HLA B*1503) | Normalized average relative binding affinity (ARB), HLA B*2705 (HLA B*2705) | Normalized average relative binding affinity (ARB), HLA B*3501 (HLA B*3501) | Normalized average relative binding affinity (ARB), HLA B*5101 (HLA B*5101) | Normalized average relative binding affinity (ARB), HLA B*5301 (HLA B*5301) | Normalized average relative binding affinity (ARB), HLA B*5401 (HLA B*5401) | Normalized average relative binding affinity (ARB), HLA B*5801 (HLA B*5801) | Normalized average relative binding affinity (ARB), HLA B*5802 (HLA B*5802) | Normalized average relative binding affinity (ARB), H-2 Db (H-2 D^b) | Normalized average relative binding affinity (ARB), H-2 Dd (H-2 D^d) | Normalized average relative binding affinity (ARB), H-2 Kk (H-2 K^k) | Normalized average relative binding affinity (ARB), HLA A*0201 (HLA A*0201) |
| --- | --- | --- | --- | --- | --- | --- | --- | --- | --- | --- | --- | --- | --- | --- | --- | --- | --- | --- |
| XEXXXXXXX [3064.0024] | 0.025 | 0.031 | 0.0068 | 0.0028 | 0.038 | 0.20 | 0.11 | 0.0016 | 0.021 | 0.041 | 0.021 | 0.0026 | 0.0066 | 0.066 | 0.036 | 0.014 | 1.0 | 0.030 |
| XFXXXXXXX [3064.0025] | 0.30 | 0.012 | 0.017 | 0.0028 | 0.14 | 0.099 | 0.0062 | 0.0016 | 0.012 | 0.086 | 0.018 | 0.00055 | 0.097 | 0.030 | 0.086 | 0.074 | 0.016 | 0.0041 |
| XGXXXXXXX [3064.0026] | 0.22 | 0.025 | 0.014 | 0.0028 | 0.17 | 0.095 | 0.042 | 0.0016 | 0.063 | 0.16 | 0.022 | 0.011 | 0.14 | 0.077 | 0.42 | 1.0 | 0.0063 | 0.0090 |

— publication PMC2248166, “Quantitative peptide binding motifs for 19 human and mouse MHC class I molecules derived using positional scanning combinatorial peptide libraries” (Immunome Research, 2008)
